Reference: patent publication US11447486B2, “2-amino-benzimidazole derivatives and their use as 5-lipoxygenase and/or prostaglandin E synthase inhibitors” (INSTITUT PASTEUR KOREA, priority 2014, dated 2022)

Legend:
[1] = molecular target: T1, human 5-LOX (Homo sapiens, UniProt P09917); assay: 5-LOX enzyme activity, fluorescence method (5-HPETE, H2DCFDA); type: biochemical; settings: read-out: 5-LO (IC50)
T1 construct: purchased Cayman 60402; host or cells: insect cells (lysate)
T1 sequence (P09917 1-674): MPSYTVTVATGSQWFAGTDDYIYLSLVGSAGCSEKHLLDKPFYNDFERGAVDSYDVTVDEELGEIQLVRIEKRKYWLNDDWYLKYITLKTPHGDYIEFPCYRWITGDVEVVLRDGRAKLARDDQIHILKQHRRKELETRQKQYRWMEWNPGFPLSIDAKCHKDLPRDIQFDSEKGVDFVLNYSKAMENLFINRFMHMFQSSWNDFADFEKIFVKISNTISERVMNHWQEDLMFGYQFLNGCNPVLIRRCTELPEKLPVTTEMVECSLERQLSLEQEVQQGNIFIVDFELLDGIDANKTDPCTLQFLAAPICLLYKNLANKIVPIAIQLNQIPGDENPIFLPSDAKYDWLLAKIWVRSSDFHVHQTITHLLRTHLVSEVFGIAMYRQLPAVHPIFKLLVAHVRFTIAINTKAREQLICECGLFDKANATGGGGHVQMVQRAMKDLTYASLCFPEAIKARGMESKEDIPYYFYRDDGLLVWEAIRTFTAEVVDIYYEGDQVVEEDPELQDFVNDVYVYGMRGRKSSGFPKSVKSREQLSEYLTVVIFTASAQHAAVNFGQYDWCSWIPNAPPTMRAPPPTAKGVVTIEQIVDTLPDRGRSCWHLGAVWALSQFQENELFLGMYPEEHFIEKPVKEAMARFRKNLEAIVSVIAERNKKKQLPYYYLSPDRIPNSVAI
Outline: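 Fluorescence-based read-out, run entirely at room temperature. Enzyme mixture was exposed to a dose range of compound from 0.5 nM to 10 uM for 5 min before ATP and arachidonic acid were added to final levels of 100 uM and 3 uM.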

[2] = system: Rat basophilic leukemia (RBL) cells; assay: LTB4 secretion assay in RBL (rat basophilic leukemia cells); type: cell-based; settings: Rattus norvegicus, RBL
Outline: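 LTB4 released into supernatant was measured by EIA after 10 min at 37 °C with arachidonic acid (2.5 uM final) and calcium ionophore A23187 (5 uM final). Before stimulation, cells plated 2×10^4/well overnight received compound doses (5 nM to 100 uM) for 15 min in 0.5% FBS medium.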

[3] = system: Rat whole blood (RWB); assay: LTB4 secretion assay in RWB (rat whole blood); type: cell-based; settings: Rattus norvegicus
Outline: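 LTB4 release was measured by EIA in supernatants of pooled, sodium heparin rat blood (male Sprague Dawley, 6-9 weeks) diluted 1:1 with RPMI. Compounds (2.5 nM to 50 uM) were added 15 min before A23187 (10 uM final), with 10 min stimulation at 37 °C before ice-cold PBS quench.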

[4] = system: HeLa S3 cells; assay: PGE2 inhibition assay (HTRF) in TNF-α stimulated HeLa S3 cells; type: cell-based; settings: Homo sapiens; PGE2, 10 uM compound, HeLa S3 stimulated with TNF-α
Experimental: Human epitheloid cervix carcinoma HeLa S3 cells (2×10^6cells/ml) were seeded with modified F-12K buffer medium pH 7.4 in tissue culture plate and incubated for overnight at 37° C. and 5% CO2. Then medium was changed into new medium contained 10 uM testing compounds or 0.1% DMSO and incubated overnight. After incubation, cells were stimulated with 30 nM TNF-α (Tumor necrosis factor-α) for 16 h. For determination of PGE2, the supernatant was measured by PGE2 HTRF (Homogeneous Time Resolved Fluorescence) assay kit Inhibition of PGE2 by compounds is calculated as a percentage of activity in the presence of drug versus the activity in the stimulator TNF-α.

[5] = molecular target: T2, Human recombinant cyclooxygenase-2 (Homo sapiens, UniProt P35354); assay: COX-2 inhibition assay (EIA); type: biochemical; settings: for inhibition at 10 µM: COX-2, 10 uM compound; for inhibitory effect on cyclooxygenase-2 (COX-2): tested at 10 uM
T2 construct: host or cells: insect Sf21 cells
T2 sequence (P35354 18-604): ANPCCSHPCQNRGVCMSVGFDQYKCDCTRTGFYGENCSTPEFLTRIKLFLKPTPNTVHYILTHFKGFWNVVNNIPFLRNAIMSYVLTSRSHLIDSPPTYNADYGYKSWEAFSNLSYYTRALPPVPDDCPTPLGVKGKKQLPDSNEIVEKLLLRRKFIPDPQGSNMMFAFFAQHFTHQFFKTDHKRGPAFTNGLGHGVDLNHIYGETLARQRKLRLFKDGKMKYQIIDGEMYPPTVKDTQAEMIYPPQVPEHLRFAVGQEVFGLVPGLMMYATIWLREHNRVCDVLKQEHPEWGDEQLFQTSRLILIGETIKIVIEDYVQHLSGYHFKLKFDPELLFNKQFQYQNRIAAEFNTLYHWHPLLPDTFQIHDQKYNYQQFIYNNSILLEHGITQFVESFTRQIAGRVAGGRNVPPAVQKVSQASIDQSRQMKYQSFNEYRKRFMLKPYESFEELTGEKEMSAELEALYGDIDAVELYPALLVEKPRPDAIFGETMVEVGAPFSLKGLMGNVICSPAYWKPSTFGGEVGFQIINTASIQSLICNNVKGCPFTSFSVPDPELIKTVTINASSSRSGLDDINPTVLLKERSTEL
Experimental: Human recombinant cyclooxygenase-2 expressed in insect Sf21 cells was used. The testing compounds and reference compound (Rofecoxib) were dissolved in DMSO (Sigma, USA) and tested at 10 uM. Test samples were pre-incubated with 0.11 U enzyme in 100 mM modified Tris-HCl buffer pH 7.7 for 15 minutes at 37° C. The reactions were initiated by addition of 0.3 μM arachidonic acid for another 5-minute incubation period, then terminated by further addition of 1 N HCl. An aliquot was then combined with the EIA kit for spectrophotometric determination of the quantity of PGE2 formed. Inhibition % was determined by compared with relative amounts of PGE2 induced by arachidonic acid.

[6] = system: Brown Norway rats; assay: OVA-induced airway inflammation model in Brown Norway rats; type: in vivo, rat; settings: 25, 50, 100 mg/kg p.o. BID, Day 19-21
Excerpt: The objective of this study is to determine the efficacy of compounds in the lungs of ovalbumin (OVA) induced in Brown Norway rats. As with most models of induced allergic asthma, animals are systemically sensitized to specific antigens and then, after a period of time, challenged with the same allergen administered via the airway. Ovalbumin had been used as the standard allergen to sensitize and challenge animals in this study.
Thirty (30) male Brown Norway rats were randomized into 5 groups on the basis of body weight. For sensitization, 1% OVA in PBS solution was mixed with alum solution (with volume ratio of 1:9). All rats in groups 1-5 were sensitized by i.p injection (1 mL/rat) of 1% OVA-alum sensitization solution on day 1, 2 and 3. At day 21, rats in groups 1-5 were challenged with 1% OVA in PBS solution with aerosolizing dosing system for 20 min.
Test compounds were administered by p.o. from days 19-21 of the study as per schedule below:
Group 1: sensitized-vehicle,
Group 2: reference drug dexamethasone, 0.3 mg/kg, p.o., Day 19-21, BID,
Group 3: compound 211, 25 mg/kg, p.o., Day 19-21, BID,
Group 4: compound 211, 50 mg/kg, p.o., Day 19-21, BID,
Group 5: compound 211, 100 mg/kg, p.o., Day 19-21, BID,
On day 22, bronchoalveolar lavage and lung tissues were harvested. Total cell number and differential cell counts in BALF, leukotriene B4 (LTB4) in BALF and lung tissue, histopathology of lung by H&E staining will be evaluated.

Compound	IC50 [1] [µM]	EC50 [2] [µM]	EC50 [3] [µM]	inhibition at 10 µM [4] [%]	inhibition at 10 µM [5] [%]	inhibitory effect on cyclooxygenase-2 (COX-2) [5]	melting point [°C]	LTB4 in BALF and Lung [6]	increase of inflammatory cells including total cell and eosinophils ([6]; BALF)	inflammation cell infiltration ([6]; lung histopathology)
FC(F)(F)Oc1ccc(OC2CCN(c3ccc4nc(N5CCCC5)[nH]c4c3)C2)cc1 (stereo not shown) [Compound 99]	< 1	< 10	> 20	> 70						
Nc1ccc2[nH]c(NCc3ccc(-c4ccccc4)cc3)nc2c1 [Compound 90]	< 1	< 10	10 to 20	> 70	< 1	do not have an inhibitory effect	> 200			
Nc1ccc2[nH]c(NCc3ccc(Oc4ccc(Cl)cc4)cc3)nc2c1 [Compound 86]	< 1	< 10	< 10	> 70						
Nc1ccc2nc(N)n(Cc3ccc(Oc4ccc(Cl)cn4)cc3)c2c1 [Compound 195]	< 1	< 10	< 10	< 40						
Nc1ccc2[nH]c(NCc3cccc4ccccc34)nc2c1 [Compound 91]	< 1	< 10	10 to 20	> 70			> 107.8			
Cn1c(NCc2ccc(Oc3ccc(C(F)(F)F)nc3)cc2)nc2ccc(NC3COC3)cc21 [Compound 226]	< 1	< 10	< 10	> 70						
Nc1ccc2[nH]c(NCc3cccc(Oc4ccccc4)c3)nc2c1 [Compound 103]	< 1	< 10	< 10	> 70						
Nc1ccc2[nH]c(N3CCC(Oc4ccc(OC(F)(F)F)cc4)C3)nc2c1 (stereo not shown) [Compound 54]	< 1	< 10	< 10	> 70						
Nc1cc2nc(NCc3ccc(Oc4ccc(Cl)cc4)cc3)[nH]c2cc1Cl [Compound 147]	< 1	< 10	< 10				191.4 to 193.5			
CC(C)Nc1ccc2[nH]c(NCc3ccc(Oc4ccccc4)cc3)nc2c1 [Compound 95]	< 1	< 10		> 70	< 1	do not have an inhibitory effect	> 137.5			
CC(C)(Nc1ccc2[nH]c(NCc3ccc(Oc4ccc(Cl)cc4)cc3)nc2c1)C(N)=O [Compound 118]	< 1	< 10	> 20				> 113.2			
CN(C)c1nc2cc(N)ccc2n1CCOc1ccc(OC(F)(F)F)cc1 [Compound 43]	1 to 10	< 10	> 20				60.8 to 61.6			
CN(C)c1nc2ccc(N)cc2n1CCOc1ccc(OC(F)(F)F)cc1 [Compound 44]	< 1	< 10	> 20	40 to 70			> 133			
Nc1ccc2[nH]c(NCc3ccc(N4CCN(c5ccc(OC(F)(F)F)cc5)CC4)cc3)nc2c1 [Compound 114]	< 1	10 to 20	> 20				> 220			
CC(C)(Nc1ccc2[nH]c(NCc3ccc(Oc4ccccc4)cc3)nc2c1)C(N)=O [Compound 109]	< 1	< 10	< 10				> 173			
Cn1c(NCCOc2ccc(OC(F)(F)F)cc2)nc2cc(N)ccc21 [Compound 53]	< 1	< 10	< 10	> 70						
c1ccc(Oc2ccc(CNc3nc4cc(NC5CCOC5)ccc4[nH]3)cc2)cc1 (stereo not shown) [Compound 119]	< 1	< 10	< 10				> 54.3			
Cn1c(NCc2ccc(Oc3ccc(Cl)cn3)cc2)nc2ccc(NC3COC3)cc21 [Compound 211]	< 1	< 10	< 10	40 to 70				reduced	significantly reduced	significantly reduced
